According to patent US6218427A, “Chromene-3-carboxylate derivatives” (Shionogi & Co., Ltd., priority 1996, dated 2001):

What was measured:
[1] = system: foam cells; details: American Journal of Pathology vol. 146, No.4, 819-826 (1995); cited from earlier work
[2] = biological target: T1, endothelin A (ETA) receptor (Rattus norvegicus, UniProt P26684); test: Measurement of affinity for endothelin A (ETA) receptor: inhibition of 125I-labeled endothelin-1 binding to A7r5 cells; details: 125I-endothelin-1 8.3 pM, A7r5 cells derived from rat aorta, 37° C., 1 h
T1 construct: smooth muscle A7r5 cells derived from rat aorta; endogenous in cells; host or cells: A7r5 (rat aorta smooth muscle cells)
T1 sequence (P26684 21-426): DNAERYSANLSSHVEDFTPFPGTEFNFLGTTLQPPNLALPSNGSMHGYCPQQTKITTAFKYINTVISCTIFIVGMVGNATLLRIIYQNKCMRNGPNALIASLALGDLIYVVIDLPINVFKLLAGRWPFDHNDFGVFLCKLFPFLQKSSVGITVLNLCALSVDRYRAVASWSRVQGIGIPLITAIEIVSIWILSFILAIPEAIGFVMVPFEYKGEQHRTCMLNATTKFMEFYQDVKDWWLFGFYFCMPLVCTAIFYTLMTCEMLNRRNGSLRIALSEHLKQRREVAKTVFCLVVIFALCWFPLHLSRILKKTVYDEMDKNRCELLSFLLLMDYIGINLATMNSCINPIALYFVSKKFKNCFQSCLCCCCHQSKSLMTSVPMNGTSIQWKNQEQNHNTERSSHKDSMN
Protocol: Experiment 1 Measurement of affinity for endothelin A (ETA) receptor
Affinities for the ETA receptor were measured from the potency for inhibition of binding of ^125 I-labeled endotheline-1 to smooth muscle A7r5 cells derived from rat aorta. In brief, the cells cultured in 48-well plates were washed with buffer, and incubated in 0.3 ml of Hepes buffered Hanks' solution containing labeled endothelin-1 (8.3 pM) and various kinds of protease inhibitors in the presence or absence of the compound of the present invention at 37° C. for 1 h. The incubation was terminated by rapid removal of the incubation medium and the cells were washed with a HEPES buffered Hanks' solution. The radioactivity of ^125 I-labeled endothelin-1 bound to the cells was determined with a gamma-counter. The specific binding was calculated by subtracting the non-specific binding which was determined in the presence of 10^-7 M non radioactive endothelin-1 from the total binding.

[3] = biological target: T2, endothelin B (ETB) receptor (Sus scrofa, UniProt P35463); test: Measurement of affinity for endothelin B (ETB) receptor: inhibition of 125I-labeled endothelin-3 binding to COS-7 cells expressing pig ETB receptor; details: 125I-endothelin-3 25 pM, 37° C., 1 h
T2 construct: expressed in transfected cells; host or cells: COS-7
T2 sequence (P35463 27-443): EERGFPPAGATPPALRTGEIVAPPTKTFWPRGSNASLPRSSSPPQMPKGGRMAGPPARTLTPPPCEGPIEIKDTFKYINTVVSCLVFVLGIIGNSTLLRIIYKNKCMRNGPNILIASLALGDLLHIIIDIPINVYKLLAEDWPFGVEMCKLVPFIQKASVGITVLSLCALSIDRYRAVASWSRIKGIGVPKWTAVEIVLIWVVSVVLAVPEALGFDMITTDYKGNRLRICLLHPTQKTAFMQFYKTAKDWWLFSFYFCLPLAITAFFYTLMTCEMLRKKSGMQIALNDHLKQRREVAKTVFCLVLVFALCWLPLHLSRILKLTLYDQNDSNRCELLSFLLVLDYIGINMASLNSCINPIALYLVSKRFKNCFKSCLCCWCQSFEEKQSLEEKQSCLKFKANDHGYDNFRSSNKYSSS
Protocol: Experiment 2 Measurement of affinity for endothelin B (ETB) receptor
Affinities for the ETB receptor were measured from the potency for inhibiting ^125 I-labeled endothelin-3 binding to COS-7 cells expressing the pig endothelin ETB receptor. In brief, a plasmid vector to which the pig endothelin ETB receptor gene was inserted was transfected to COS-7 cells by the lipofectin method. After the cells were washed with buffer, 10^3 -10^4 cells were dispersed in HEPES buffered Hanks' solution (0.1 ml) containing 25 pM of 125I labeled endothelin-3 and various kinds of protease inhibitors and incubated in the presence or absence of the compound of the present invention at 37° C. for 1 h. After completion of the reaction, the radioactivity bound was trapped by a glass fiber filter and measured with a gamma counter. Specific binding was calculated by subtracting the non-specific binding measured in the presence of 10^-7 M non-radioactive endothelin-3 from the total binding.

[4] = system: macrophage foam cell; test: Inhibition of macrophage foam cell formation in high-cholesterol-diet hamsters (aortic arch); assay type: in vivo, golden Syrian hamster; details: 6 weeks, 8 hamsters, p < 0.01 vs HCD group (HCD 25.7 ± 2.7)
From the text: Experiment 3 Inhibition of macrophage foam cell formation
Male golden Syrian hamster of 12 weeks old, were used for the experiment. Hamsters were classified into a group wherein hamsters were fed with usual powder diet (OD group), a group wherein hamsters were fed with diet containing high cholesterol (2%) (HCD group) and a group wherein hamsters were fed with diet containing high cholesterol (2%) and the compound I-36 of the present invention (HCD +I-36 group) and animals in each group were fed for 6 weeks. The added amount of the compound 1-36 of the present invention was 0.01, 0.03 and 0.1% and they were equivalent to 6, 19, 66 mg/kg, respectively, calculated from food intake. Each group contains 8 hamsters.
After feeding for 6 weeks, hamsters were anesthetized with pentobarbital and subjected to thoracotomy to expose a heart. Arch of the aorta was removed after reperfusion with phosphate-buffered 10% formalin solution from the ventricle. The arch of the aorta was opened longitudinally and the number of foam cells in a microphotograph after staining with oil red O was counted with a colony counter to calculate the number per aortic arch area. The significant difference between the groups was examined by Dunnett's multiple comparison test.

[5] = Effect on peripheral circulatory insufficiency (tail blood flow after 3° C. immersion); assay type: in vivo, Wistar rats
Protocol: Experiment 4 Effect on peripheral circulatory insufficiency
Using Wistar rats, the peripheral circulatory insufficiency model was produced by immersing the rat tail tip (2-3 cm) in 1° C. water for 9 h, and experiments were performed at 3 weeks after above treatment. Tail blood flows in peripheral circulatory insufficiency rats were measured with laser-Doppler flowmetry with a tablet probe during immersing the whole tail in 3° C. water (30 min) The probe was held directly adjacent to the ventral surface of the tail, approximately 14 cm from the tip. To evaluate the effects of the compound of the present invention, peripheral circulatory insufficiency rats administered by the compound of the present invention (I-36, 30 mg/kg, po) at 2 h before 3° C. immersion.
In the normal Wistar rats, tail blood flow was transiently declined after 3° C. immersion, and gradually recovered up to about 70 % of basal level at 25 to 30 min after the immertion (normal rat). On the other hand, in the peripheral circulatory insufficiency rats, the tail blood flow measured immediately before administration of the compound of the present invention recovered to no more than 40% of basal level (peripheral circulatory insufficiency rat). […] Three days after administration of the compound of the present invention, when the circulatory effects of the compound was supposed to fully disappear, tail blood flows during 3° C. immersion were measured again. […] For statistic analysis, Dunnett's test was used.

## Cc1noc(NS(=O)(=O)c2cccc3c(N(C)C)cccc23)c1C [BMS-182874]
[1]
  number and size of foam cells: reduce the number and size of foam cells

## COc1ccc(C2=C(C(=O)O)C(c3ccc4c(c3)OCO4)Oc3ccc(OC(C)C)cc32)cc1 (stereo not drawn) [Compound I-36, 2-(Benz[1,3]dioxol-5-yl)-6-isopropoxy-4-(4-methoxy-phenyl)-2H-chromen-3-carboxylic acid]
[2]
  IC50: 0.89 nM
[3]
  IC50: 180 nM
[4]; HCD + 0.01% I-36 in diet (equivalent to 6 mg/kg)
  Aortic foam cell numbers / mm^2 (Mean ± SE): 10.1 ± 1.7 / mm^2
[4]; HCD + 0.03% I-36 in diet (equivalent to 19 mg/kg)
  Aortic foam cell numbers / mm^2 (Mean ± SE): 9.1 ± 0.8 / mm^2
[4]; HCD + 0.1% I-36 in diet (equivalent to 66 mg/kg)
  Aortic foam cell numbers / mm^2 (Mean ± SE): 8.8 ± 1.1 / mm^2
[5]; insufficiency rat + I-36, 30 mg/kg, po, 2 h before 3° C. immersion, n = 4, p < 0.01 vs insufficiency rat control (37.20 ± 3.29)
  skin blood flow (%), average from 20-25 min after cold exposure: 62.02 ± 1.23%
[5]; insufficiency rat + I-36, 30 mg/kg, po, in words
  recovery of the tail blood flow: remarkable and significant
[5]; three days after administration of I-36, in words
  recovery of the blood flow after wash out: same as that before administration
[5]; wash out: three days after administration of I-36, n = 4
  skin blood flow (%), average from 20-25 min after cold exposure: 44.19 ± 5.83%

## CCCOC1=C(C(=O)O)C(c2ccc3c(c2)OCO3)Oc2ccc(OC(C)C)cc21 (stereo not drawn) [Compound I-56]
[2]
  IC50: 1.5 nM
[3]
  IC50: 1300 nM

## CCCCOC1=C(C(=O)O)C(c2ccc3c(c2)OCO3)Oc2ccc(OC(C)C)cc21 (stereo not drawn) [Compound I-57]
[2]
  IC50: 0.41 nM
[3]
  IC50: 780 nM

## CCCCCOC1=C(C(=O)O)C(c2ccc3c(c2)OCO3)Oc2ccc(OC(C)C)cc21 (stereo not drawn) [Compound I-58]
[2]
  IC50: 0.48 nM
[3]
  IC50: 150 nM

## CC(C)OC1=C(C(=O)O)C(c2ccc3c(c2)OCO3)Oc2ccc(OC(C)C)cc21 (stereo not drawn) [Compound I-59]
[2]
  IC50: 0.81 nM
[3]
  IC50: 730 nM

## C=CCCCOC1=C(C(=O)O)C(c2ccc3c(c2)OCO3)Oc2ccc(OC(C)C)cc21 (stereo not drawn) [Compound I-65, 2-(Benzo[1,3]dioxol-5-yl)-6-isopropoxy-4-(4-pentenyloxy-1-yl)-2H-chromen-3-carboxylic acid]
[2]
  IC50: 0.38 nM
[3]
  IC50: 130 nM

## CCCCCCOC1=C(C(=O)O)C(c2ccc3c(c2)OCO3)Oc2ccc(OC(C)C)cc21 (stereo not drawn) [Compound I-67]
[2]
  IC50: 0.67 nM
[3]
  IC50: 78 nM

## CC(C)Oc1ccc2c(c1)C(OCCCCCO)=C(C(=O)O)C(c1ccc3c(c1)OCO3)O2 (stereo not drawn) [Compound I-68]
[2]
  IC50: 0.95 nM
[3]
  IC50: 880 nM

## COC(CCCOC1=C(C(=O)O)C(c2ccc3c(c2)OCO3)Oc2ccc(OC(C)C)cc21)OC (stereo not drawn) [Compound I-70]
[2]
  IC50: 1.2 nM
[3]
  IC50: 270 nM

## COc1ccc(OC2=C(C(=O)O)C(c3ccc4c(c3)OCO4)Oc3ccc(OC(C)C)cc32)cc1 (stereo not drawn) [Compound I-74, 2-(Benzo[1,3]dioxol-5-yl)-6-isopropoxy-4-(4-methoxy-phenoxy)-2H-chromen-3-carboxylic acid]
[2]
  IC50: 0.21 nM
[3]
  IC50: 58 nM

## CCCCC1=C(C(=O)O)C(c2ccc3c(c2)OCO3)Oc2ccc(OC(C)C)cc21 (stereo not drawn) [Compound I-76]
[2]
  IC50: 0.73 nM
[3]
  IC50: 610 nM

## CCCCCC1=C(C(=O)O)C(c2ccc3c(c2)OCO3)Oc2ccc(OC(C)C)cc21 (stereo not drawn) [Compound I-77, 2-(Benzo[1,3]dioxol-5-yl)-6-isopropoxy-4-pentyl-2H-chromen-3-carboxylic acid]
[2]
  IC50: 0.32 nM
[3]
  IC50: 150 nM

## CC(C)Oc1ccc2c(c1)C(C(C)C)=C(C(=O)O)C(c1ccc3c(c1)OCO3)O2 (stereo not drawn) [Compound I-78]
[2]
  IC50: 0.63 nM
[3]
  IC50: 2500 nM

## CC(C)Oc1ccc2c(c1)C(C1CCCC1)=C(C(=O)O)C(c1ccc3c(c1)OCO3)O2 (stereo not drawn) [Compound I-79, 2-(Benzo[1,3]dioxol-5-yl)-4-cyclopentyl-6-isopropoxy-2H-chromen-3-carboxylic acid]
[2]
  IC50: 0.53 nM
[3]
  IC50: 350 nM

## Cc1ccc(C2=C(C(=O)O)C(c3ccc4c(c3)OCO4)Oc3ccc(OC(C)C)cc32)s1 (stereo not drawn) [Compound I-80, 2-(Benzo[1,3]dioxol-5-yl)-6-isopropoxy-4-(5-methyl-thiophen-2-yl)-2H-chromen-3-carboxylic acid]
[2]
  IC50: 1 nM
[3]
  IC50: 1800 nM

## COc1ccc(CC2=C(C(=O)O)C(c3ccc4c(c3)OCO4)Oc3ccc(OC(C)C)cc32)cc1 (stereo not drawn) [Compound I-81, 2-(Benzo[1,3]dioxol-5-yl)-6-isopropoxy-4-(4-methoxy-benzyl)-2H-chromen-3-carboxylic acid]
[2]
  IC50: 0.5 nM
[3]
  IC50: 85 nM

## CCCCCCC1=C(C(=O)O)C(c2ccc3c(c2)OCO3)Oc2ccc(OC(C)C)cc21 (stereo not drawn) [Compound I-82]
[2]
  IC50: 0.62 nM
[3]
  IC50: 69 nM

## CC(C)CCC1=C(C(=O)O)C(c2ccc3c(c2)OCO3)Oc2ccc(OC(C)C)cc21 (stereo not drawn) [Compound I-83]
[2]
  IC50: 1.9 nM
[3]
  IC50: 480 nM

## COCCCC1=C(C(=O)O)C(c2ccc3c(c2)OCO3)Oc2ccc(OC(C)C)cc21 (stereo not drawn) [Compound I-84]
[2]
  IC50: 1.8 nM
[3]
  IC50: 710 nM

## CC(C)Oc1ccc2c(c1)C(CC1CCCCC1)=C(C(=O)O)C(c1ccc3c(c1)OCO3)O2 (stereo not drawn) [Compound I-85]
[2]
  IC50: 0.58 nM
[3]
  IC50: 46 nM

## C=CCCC1=C(C(=O)O)C(c2ccc3c(c2)OCO3)Oc2ccc(OC(C)C)cc21 (stereo not drawn) [Compound I-86]
[2]
  IC50: 2.7 nM
[3]
  IC50: 950 nM

## CC(C)Oc1ccc2c(c1)C(CCCCO)=C(C(=O)O)C(c1ccc3c(c1)OCO3)O2 (stereo not drawn) [Compound I-87]
[2]
  IC50: 2.3 nM
[3]
  IC50: 1800 nM

## CCCCSC1=C(C(=O)O)C(c2ccc3c(c2)OCO3)Oc2ccc(OC(C)C)cc21 (stereo not drawn) [Compound I-89, 2-(Benzo[1,3]dioxol-5-yl)-4-butylsulfanyl-6-isopropoxy-2H-chromen-3-carboxylic acid]
[2]
  IC50: 0.27 nM
[3]
  IC50: 100 nM
